Assay results: patent US7141252B2, “Composition for the treatment of burns, sunburns, abrasions, ulcers and cutaneous irritation” (priority 2003, dated 2006)

Tested on: burns
Assay: Treating burns with different combinations of the ingredients
Format: in vivo
Details: topical treatment of burns, comparison of ingredient combinations

**Q.** `OB(O)O` [boric acid] was tested. Which healing of burns did it give?
**A.** The healing of burns was “appeared to advance healing without infection but only in a very limited fashion”.
